Activity calls are given as the source filed them. Rule as the data show it, for most assays here: actives have a measured Kd and inactives only a lower limit.
Biological target: Serine/threonine-protein kinase N1 (Homo sapiens, UniProt Q16512)
Also: in the data inactive means no Kd found up to 30 µM.

Row | Structure (SMILES) | Kd
1 | N[C@@H]1CCCN(c2c(/C=C3\SC(=O)NC3=O)cccc2-c2ccccc2)C1 | > 30 µM (inactive)
2 | Cc1ccc(S(=O)(=O)Nc2nc3ccccc3nc2Nc2ccc3nsnc3c2)cc1 | > 30 µM (inactive)
3 | CN1CC[C@@H](c2c(O)cc(O)c3c(=O)cc(-c4ccccc4Cl)oc23)[C@@H]1CO | > 30 µM (inactive)

Biological target: Elongation factor Tu, mitochondrial (Homo sapiens, UniProt P49411)

Row | Structure (SMILES) | Kd
4 | N[C@@H]1CCCN(c2c(/C=C3\SC(=O)NC3=O)cccc2-c2ccccc2)C1 | > 30 µM (inactive)
5 | Cc1ccc(S(=O)(=O)Nc2nc3ccccc3nc2Nc2ccc3nsnc3c2)cc1 | > 30 µM (inactive)
6 | CN1CC[C@@H](c2c(O)cc(O)c3c(=O)cc(-c4ccccc4Cl)oc23)[C@@H]1CO | > 30 µM (inactive)

Biological target: T1, Septin-9 (Homo sapiens, UniProt Q9UHD8)
T1 sequence (Q9UHD8 whole entry): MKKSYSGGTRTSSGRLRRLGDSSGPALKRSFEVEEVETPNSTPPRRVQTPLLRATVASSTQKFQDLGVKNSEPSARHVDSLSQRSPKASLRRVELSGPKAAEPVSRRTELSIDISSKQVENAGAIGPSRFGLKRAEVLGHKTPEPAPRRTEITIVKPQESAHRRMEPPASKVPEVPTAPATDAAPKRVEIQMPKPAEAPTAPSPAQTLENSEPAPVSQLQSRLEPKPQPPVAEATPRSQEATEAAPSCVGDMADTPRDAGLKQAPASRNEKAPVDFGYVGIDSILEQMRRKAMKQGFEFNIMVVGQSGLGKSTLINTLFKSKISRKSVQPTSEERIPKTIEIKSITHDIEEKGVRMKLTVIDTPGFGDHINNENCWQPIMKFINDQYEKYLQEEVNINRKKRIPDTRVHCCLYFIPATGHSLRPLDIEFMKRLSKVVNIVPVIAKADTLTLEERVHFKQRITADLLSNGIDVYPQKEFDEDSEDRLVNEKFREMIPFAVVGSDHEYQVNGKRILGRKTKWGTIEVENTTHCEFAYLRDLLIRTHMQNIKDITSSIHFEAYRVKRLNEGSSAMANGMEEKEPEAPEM

Row | Structure (SMILES) | Kd
7 | N[C@@H]1CCCN(c2c(/C=C3\SC(=O)NC3=O)cccc2-c2ccccc2)C1 | > 30 µM (inactive)
8 | Cc1ccc(S(=O)(=O)Nc2nc3ccccc3nc2Nc2ccc3nsnc3c2)cc1 | > 30 µM (inactive)
9 | CN1CC[C@@H](c2c(O)cc(O)c3c(=O)cc(-c4ccccc4Cl)oc23)[C@@H]1CO | > 30 µM (inactive)

Biological target: Eukaryotic translation initiation factor 2-alpha kinase 1 (Homo sapiens, UniProt Q9BQI3)
Sequence (Q9BQI3 whole entry): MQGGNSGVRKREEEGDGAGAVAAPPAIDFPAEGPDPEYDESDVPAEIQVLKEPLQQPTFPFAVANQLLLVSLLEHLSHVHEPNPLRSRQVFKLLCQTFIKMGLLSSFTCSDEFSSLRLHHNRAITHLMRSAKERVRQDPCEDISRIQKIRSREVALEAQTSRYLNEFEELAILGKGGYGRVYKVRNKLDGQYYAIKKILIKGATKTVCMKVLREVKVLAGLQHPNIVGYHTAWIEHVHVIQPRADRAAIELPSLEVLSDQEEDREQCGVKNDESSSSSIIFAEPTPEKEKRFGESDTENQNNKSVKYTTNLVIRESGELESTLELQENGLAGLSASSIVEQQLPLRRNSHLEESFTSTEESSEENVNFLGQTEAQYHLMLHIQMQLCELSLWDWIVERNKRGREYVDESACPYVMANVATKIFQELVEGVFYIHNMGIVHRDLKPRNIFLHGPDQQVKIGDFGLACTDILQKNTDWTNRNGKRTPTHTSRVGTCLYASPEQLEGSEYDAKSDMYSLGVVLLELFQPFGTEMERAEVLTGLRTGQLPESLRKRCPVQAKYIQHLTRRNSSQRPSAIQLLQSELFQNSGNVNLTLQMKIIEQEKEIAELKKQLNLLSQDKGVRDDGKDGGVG

Row | Structure (SMILES) | Kd
10 | N[C@@H]1CCCN(c2c(/C=C3\SC(=O)NC3=O)cccc2-c2ccccc2)C1 | > 30 µM (inactive)
11 | Cc1ccc(S(=O)(=O)Nc2nc3ccccc3nc2Nc2ccc3nsnc3c2)cc1 | > 30 µM (inactive)
12 | CN1CC[C@@H](c2c(O)cc(O)c3c(=O)cc(-c4ccccc4Cl)oc23)[C@@H]1CO | > 30 µM (inactive)

Biological target: Serine/threonine-protein kinase MRCK alpha (Homo sapiens, UniProt Q5VT25)
Sequence (Q5VT25 whole entry): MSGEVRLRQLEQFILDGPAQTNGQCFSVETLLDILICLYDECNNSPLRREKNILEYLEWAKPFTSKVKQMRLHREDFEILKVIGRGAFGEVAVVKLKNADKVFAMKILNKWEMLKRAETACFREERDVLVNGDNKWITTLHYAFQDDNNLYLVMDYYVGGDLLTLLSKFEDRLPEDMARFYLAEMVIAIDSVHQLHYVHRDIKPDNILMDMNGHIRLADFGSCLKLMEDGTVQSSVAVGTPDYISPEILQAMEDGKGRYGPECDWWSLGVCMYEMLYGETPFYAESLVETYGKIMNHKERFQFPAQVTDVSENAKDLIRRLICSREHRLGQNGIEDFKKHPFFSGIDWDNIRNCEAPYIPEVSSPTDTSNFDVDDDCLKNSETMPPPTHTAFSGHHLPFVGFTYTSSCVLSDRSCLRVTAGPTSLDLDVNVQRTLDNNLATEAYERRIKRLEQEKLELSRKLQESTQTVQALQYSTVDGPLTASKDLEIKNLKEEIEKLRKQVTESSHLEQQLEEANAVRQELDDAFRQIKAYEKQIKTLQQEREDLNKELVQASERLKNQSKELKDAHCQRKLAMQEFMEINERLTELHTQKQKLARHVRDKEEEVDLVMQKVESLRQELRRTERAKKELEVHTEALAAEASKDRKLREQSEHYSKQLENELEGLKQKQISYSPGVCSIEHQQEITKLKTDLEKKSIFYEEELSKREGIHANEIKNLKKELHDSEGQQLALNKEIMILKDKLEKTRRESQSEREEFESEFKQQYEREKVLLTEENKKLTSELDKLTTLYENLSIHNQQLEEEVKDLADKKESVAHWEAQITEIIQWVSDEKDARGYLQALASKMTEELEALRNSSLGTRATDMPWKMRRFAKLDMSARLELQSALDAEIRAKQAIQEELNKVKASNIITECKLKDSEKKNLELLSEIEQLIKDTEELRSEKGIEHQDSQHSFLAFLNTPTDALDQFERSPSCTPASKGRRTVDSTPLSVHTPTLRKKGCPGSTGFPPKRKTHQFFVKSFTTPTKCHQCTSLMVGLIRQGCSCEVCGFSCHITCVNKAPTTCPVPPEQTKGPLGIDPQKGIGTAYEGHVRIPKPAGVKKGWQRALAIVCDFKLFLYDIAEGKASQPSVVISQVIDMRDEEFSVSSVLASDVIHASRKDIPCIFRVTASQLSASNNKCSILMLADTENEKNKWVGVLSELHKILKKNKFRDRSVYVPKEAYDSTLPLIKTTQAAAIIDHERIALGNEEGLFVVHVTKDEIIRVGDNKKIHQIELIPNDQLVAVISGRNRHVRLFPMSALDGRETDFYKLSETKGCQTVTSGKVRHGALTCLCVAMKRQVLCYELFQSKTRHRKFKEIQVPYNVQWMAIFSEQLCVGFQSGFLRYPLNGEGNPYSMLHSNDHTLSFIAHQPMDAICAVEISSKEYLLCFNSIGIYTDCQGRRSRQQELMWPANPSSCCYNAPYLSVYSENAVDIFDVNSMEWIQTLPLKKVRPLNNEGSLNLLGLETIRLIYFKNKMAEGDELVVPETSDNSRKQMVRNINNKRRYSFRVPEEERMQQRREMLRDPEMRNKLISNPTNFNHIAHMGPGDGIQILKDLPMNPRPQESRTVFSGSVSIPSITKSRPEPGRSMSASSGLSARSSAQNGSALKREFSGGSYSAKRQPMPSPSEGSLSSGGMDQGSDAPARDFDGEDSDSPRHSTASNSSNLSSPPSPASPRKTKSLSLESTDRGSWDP

Row | Structure (SMILES) | Kd
13 | N[C@@H]1CCCN(c2c(/C=C3\SC(=O)NC3=O)cccc2-c2ccccc2)C1 | > 30 µM (inactive)
14 | Cc1ccc(S(=O)(=O)Nc2nc3ccccc3nc2Nc2ccc3nsnc3c2)cc1 | > 30 µM (inactive)
15 | CN1CC[C@@H](c2c(O)cc(O)c3c(=O)cc(-c4ccccc4Cl)oc23)[C@@H]1CO | > 30 µM (inactive)

Biological target: Mitogen-activated protein kinase 9 (Homo sapiens, UniProt P45984)
Sequence (P45984 whole entry): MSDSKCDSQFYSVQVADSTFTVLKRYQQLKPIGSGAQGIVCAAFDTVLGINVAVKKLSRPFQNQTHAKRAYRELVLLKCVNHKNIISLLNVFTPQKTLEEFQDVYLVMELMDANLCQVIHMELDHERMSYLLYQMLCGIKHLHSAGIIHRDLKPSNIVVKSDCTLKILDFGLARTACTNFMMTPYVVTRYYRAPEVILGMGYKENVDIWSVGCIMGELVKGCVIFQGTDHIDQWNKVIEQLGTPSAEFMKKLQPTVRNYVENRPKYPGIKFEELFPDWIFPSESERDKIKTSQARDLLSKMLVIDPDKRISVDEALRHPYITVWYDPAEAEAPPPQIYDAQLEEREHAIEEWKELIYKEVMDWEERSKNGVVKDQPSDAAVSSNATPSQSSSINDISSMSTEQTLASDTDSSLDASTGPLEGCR

Row | Structure (SMILES) | Kd
16 | N[C@@H]1CCCN(c2c(/C=C3\SC(=O)NC3=O)cccc2-c2ccccc2)C1 | > 30 µM (inactive)
17 | Cc1ccc(S(=O)(=O)Nc2nc3ccccc3nc2Nc2ccc3nsnc3c2)cc1 | > 30 µM (inactive)
18 | CN1CC[C@@H](c2c(O)cc(O)c3c(=O)cc(-c4ccccc4Cl)oc23)[C@@H]1CO | > 30 µM (inactive)

Biological target: Casein kinase I isoform epsilon (Homo sapiens, UniProt P49674)
Sequence (P49674 whole entry, canonical isoform): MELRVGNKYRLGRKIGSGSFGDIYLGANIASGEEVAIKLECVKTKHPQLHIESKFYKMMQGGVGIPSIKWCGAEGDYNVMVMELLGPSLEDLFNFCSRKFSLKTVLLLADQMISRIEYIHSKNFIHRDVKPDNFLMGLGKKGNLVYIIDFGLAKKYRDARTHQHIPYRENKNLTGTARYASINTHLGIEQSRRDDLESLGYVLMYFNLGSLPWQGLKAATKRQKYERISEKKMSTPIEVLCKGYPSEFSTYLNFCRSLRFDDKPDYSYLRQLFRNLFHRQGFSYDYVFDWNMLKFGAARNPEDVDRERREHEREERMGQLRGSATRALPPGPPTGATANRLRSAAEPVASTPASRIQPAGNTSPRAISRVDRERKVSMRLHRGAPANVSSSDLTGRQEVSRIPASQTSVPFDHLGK

Row | Structure (SMILES) | Kd
19 | N[C@@H]1CCCN(c2c(/C=C3\SC(=O)NC3=O)cccc2-c2ccccc2)C1 | > 30 µM (inactive)
20 | Cc1ccc(S(=O)(=O)Nc2nc3ccccc3nc2Nc2ccc3nsnc3c2)cc1 | > 30 µM (inactive)
21 | CN1CC[C@@H](c2c(O)cc(O)c3c(=O)cc(-c4ccccc4Cl)oc23)[C@@H]1CO | > 30 µM (inactive)

Biological target: Dual specificity mitogen-activated protein kinase kinase 1 (Homo sapiens, UniProt Q02750)
Sequence (Q02750 whole entry): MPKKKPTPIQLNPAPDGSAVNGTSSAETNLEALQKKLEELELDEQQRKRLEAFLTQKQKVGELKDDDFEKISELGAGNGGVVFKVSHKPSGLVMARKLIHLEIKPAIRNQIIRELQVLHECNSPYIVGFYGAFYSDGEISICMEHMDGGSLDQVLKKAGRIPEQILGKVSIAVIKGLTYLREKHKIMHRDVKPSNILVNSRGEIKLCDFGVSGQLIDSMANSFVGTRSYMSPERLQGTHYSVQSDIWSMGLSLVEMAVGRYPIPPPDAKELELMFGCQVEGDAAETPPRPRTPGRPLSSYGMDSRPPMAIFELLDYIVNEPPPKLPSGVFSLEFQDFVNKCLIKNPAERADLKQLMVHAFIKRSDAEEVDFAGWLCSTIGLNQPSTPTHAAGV

Row | Structure (SMILES) | Kd
22 | N[C@@H]1CCCN(c2c(/C=C3\SC(=O)NC3=O)cccc2-c2ccccc2)C1 | > 30 µM (inactive)
23 | Cc1ccc(S(=O)(=O)Nc2nc3ccccc3nc2Nc2ccc3nsnc3c2)cc1 | > 30 µM (inactive)
24 | CN1CC[C@@H](c2c(O)cc(O)c3c(=O)cc(-c4ccccc4Cl)oc23)[C@@H]1CO | > 30 µM (inactive)

Biological target: NADH dehydrogenase [ubiquinone] 1 alpha subcomplex subunit 13 (Homo sapiens, UniProt Q9P0J0)
Sequence (Q9P0J0 whole entry, one chain of several): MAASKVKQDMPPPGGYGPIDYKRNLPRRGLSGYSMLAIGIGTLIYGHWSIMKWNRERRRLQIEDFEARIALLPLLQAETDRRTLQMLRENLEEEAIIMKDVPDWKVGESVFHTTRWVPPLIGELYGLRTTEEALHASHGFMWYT

Row | Structure (SMILES) | Kd
25 | N[C@@H]1CCCN(c2c(/C=C3\SC(=O)NC3=O)cccc2-c2ccccc2)C1 | > 30 µM (inactive)
26 | Cc1ccc(S(=O)(=O)Nc2nc3ccccc3nc2Nc2ccc3nsnc3c2)cc1 | > 30 µM (inactive)
27 | CN1CC[C@@H](c2c(O)cc(O)c3c(=O)cc(-c4ccccc4Cl)oc23)[C@@H]1CO | > 30 µM (inactive)

Biological target: Tyrosine-protein kinase FRK (Homo sapiens, UniProt P42685)
Sequence (P42685 whole entry): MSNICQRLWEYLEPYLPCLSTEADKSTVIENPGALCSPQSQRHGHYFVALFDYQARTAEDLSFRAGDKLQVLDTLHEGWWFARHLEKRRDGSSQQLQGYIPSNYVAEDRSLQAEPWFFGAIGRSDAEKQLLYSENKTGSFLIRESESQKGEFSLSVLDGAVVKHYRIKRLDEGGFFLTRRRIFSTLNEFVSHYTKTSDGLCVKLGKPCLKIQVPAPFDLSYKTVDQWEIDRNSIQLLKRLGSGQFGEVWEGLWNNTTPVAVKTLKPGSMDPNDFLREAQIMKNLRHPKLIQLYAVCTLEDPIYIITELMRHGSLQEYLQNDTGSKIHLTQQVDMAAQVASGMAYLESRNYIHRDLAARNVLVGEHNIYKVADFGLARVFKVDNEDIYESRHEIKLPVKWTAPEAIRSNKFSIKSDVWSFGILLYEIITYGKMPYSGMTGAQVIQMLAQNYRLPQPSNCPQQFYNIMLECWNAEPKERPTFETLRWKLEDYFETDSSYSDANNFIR

Row | Structure (SMILES) | Kd
28 | N[C@@H]1CCCN(c2c(/C=C3\SC(=O)NC3=O)cccc2-c2ccccc2)C1 | > 30 µM (inactive)
29 | Cc1ccc(S(=O)(=O)Nc2nc3ccccc3nc2Nc2ccc3nsnc3c2)cc1 | > 30 µM (inactive)
30 | CN1CC[C@@H](c2c(O)cc(O)c3c(=O)cc(-c4ccccc4Cl)oc23)[C@@H]1CO | > 30 µM (inactive)

Biological target: T2, Serine/threonine-protein kinase NLK (Homo sapiens, UniProt Q9UBE8)
T2 sequence (Q9UBE8 whole entry): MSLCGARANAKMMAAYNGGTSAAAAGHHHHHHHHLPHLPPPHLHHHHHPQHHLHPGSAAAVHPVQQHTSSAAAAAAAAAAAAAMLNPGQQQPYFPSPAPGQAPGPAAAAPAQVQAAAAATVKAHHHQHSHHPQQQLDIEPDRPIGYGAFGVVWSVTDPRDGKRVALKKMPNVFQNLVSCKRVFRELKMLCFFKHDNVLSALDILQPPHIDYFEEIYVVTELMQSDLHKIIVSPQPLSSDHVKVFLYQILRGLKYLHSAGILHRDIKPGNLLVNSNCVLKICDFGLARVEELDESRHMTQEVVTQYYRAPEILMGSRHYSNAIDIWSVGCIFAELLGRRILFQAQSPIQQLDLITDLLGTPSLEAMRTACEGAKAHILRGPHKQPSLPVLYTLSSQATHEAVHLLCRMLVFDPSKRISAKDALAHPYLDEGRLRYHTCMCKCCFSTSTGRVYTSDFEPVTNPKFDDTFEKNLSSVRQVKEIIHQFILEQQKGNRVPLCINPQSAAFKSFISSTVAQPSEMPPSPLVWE

Row | Structure (SMILES) | Kd
31 | N[C@@H]1CCCN(c2c(/C=C3\SC(=O)NC3=O)cccc2-c2ccccc2)C1 | > 30 µM (inactive)
32 | Cc1ccc(S(=O)(=O)Nc2nc3ccccc3nc2Nc2ccc3nsnc3c2)cc1 | > 30 µM (inactive)
33 | CN1CC[C@@H](c2c(O)cc(O)c3c(=O)cc(-c4ccccc4Cl)oc23)[C@@H]1CO | 1.48 µM

Biological target: T3, Activin receptor type-1B (Homo sapiens, UniProt P36896)
T3 sequence (P36896 whole entry): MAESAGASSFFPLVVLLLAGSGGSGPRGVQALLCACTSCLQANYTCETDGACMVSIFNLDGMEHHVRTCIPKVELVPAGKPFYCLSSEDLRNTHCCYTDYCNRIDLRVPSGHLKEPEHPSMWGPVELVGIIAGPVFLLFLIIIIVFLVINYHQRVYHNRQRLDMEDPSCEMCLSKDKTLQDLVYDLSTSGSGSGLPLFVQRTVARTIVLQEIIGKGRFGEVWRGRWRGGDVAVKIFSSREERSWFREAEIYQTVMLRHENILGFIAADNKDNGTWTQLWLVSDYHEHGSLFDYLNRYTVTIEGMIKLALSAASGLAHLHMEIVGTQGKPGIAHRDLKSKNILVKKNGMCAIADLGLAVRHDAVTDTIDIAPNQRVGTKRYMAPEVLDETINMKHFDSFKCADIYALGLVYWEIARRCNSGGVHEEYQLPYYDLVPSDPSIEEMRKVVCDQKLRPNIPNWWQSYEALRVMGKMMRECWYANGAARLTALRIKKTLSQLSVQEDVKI

Row | Structure (SMILES) | Kd
34 | N[C@@H]1CCCN(c2c(/C=C3\SC(=O)NC3=O)cccc2-c2ccccc2)C1 | > 30 µM (inactive)
35 | Cc1ccc(S(=O)(=O)Nc2nc3ccccc3nc2Nc2ccc3nsnc3c2)cc1 | > 30 µM (inactive)
36 | CN1CC[C@@H](c2c(O)cc(O)c3c(=O)cc(-c4ccccc4Cl)oc23)[C@@H]1CO | > 30 µM (inactive)

Source: ChEMBL document CHEMBL3991601, “The target landscape of clinical kinase drugs” (Science, 2017)
